Results from PubChem BioAssay (NCI).
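Cells were grown in 96-well plates and exposed to each compound for 48 hours at five concentrations; endpoints were interpolated linearly between bracketing concentrations, or set to the highest concentration if not reached. Here, GI50 denotes the concentration required for 50% inhibition of growth. TGI is the concentration that stops growth completely.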

Key:
Test in all cases: NCI-60 cell line screen, 48 h
BT-549 breast = tested on: BT-549 breast
DU-145 prostate = tested on: DU-145 prostate
MDA-MB-231 breast = tested on: MDA-MB-231 breast
MDA-MB-435 = tested on: MDA-MB-435
MDA-N = tested on: MDA-N
PC-3 prostate = tested on: PC-3 prostate
T-47D breast = tested on: T-47D breast
DLD-1 colon = tested on: DLD-1 colon
DMS 114 small cell lung = tested on: DMS 114 small cell lung
DMS 273 small cell lung = tested on: DMS 273 small cell lung
HOP-18 NSCLC = tested on: HOP-18 NSCLC
M19-MEL melanoma = tested on: M19-MEL melanoma
XF 498 CNS = tested on: XF 498 CNS
KM20L2 colon = tested on: KM20L2 colon

Row | Structure (SMILES) | TGI (BT-549 breast) [µM] | TGI (DU-145 prostate) [µM] | TGI (MDA-MB-231 breast) [µM] | TGI (MDA-MB-435) [µM] | TGI (MDA-N) [µM] | TGI (PC-3 prostate) [µM] | TGI (T-47D breast) [µM] | TGI (DLD-1 colon) [µM] | TGI (DMS 114 small cell lung) [µM] | TGI (DMS 273 small cell lung) [µM] | TGI (HOP-18 NSCLC) [µM] | TGI (M19-MEL melanoma) [µM] | TGI (XF 498 CNS) [µM] | TGI (KM20L2 colon) [µM] | also measured
1 | O=c1[nH]nc(NCc2ccccc2)c2nnn(Cc3ccccc3)c12 | > 100 | > 100 | > 100 | > 100 | > 100 | > 100 | – | – | – | – | – | – | – | – | –
2 | OCC1COc2cc(Cl)c(Cl)cc2O1 (centres undefined) | – | > 10 | > 10 | > 10 | > 10 | > 10 | > 10 | – | – | – | – | – | – | – | –
3 | Cc1c[n+]2c3ccccc3c3ccccc3c2s1 | – | – | – | – | – | – | – | > 44.5 | 16.1 | 20.1 | > 100 | 18.3 | 18 | – | –
4 | Cc1cccc(Br)[n+]1[O-] | > 100 | > 100 | > 100 | > 100 | – | > 100 | > 100 | – | – | – | – | – | – | – | –
5 | NCCSc1cc(O)c2c(c1N)C(=O)c1ccccc1C2=O | – | – | – | – | – | – | – | > 100 | – | – | – | 73.6 | 49.5 | > 100 | –
6 | COc1cc(C2c3cc4c(cc3[C@@H](Nc3cccc(CO)c3)C3COC(=O)[C@H]23)OCO4)cc(OC)c1O (some centres undefined) | – | – | – | – | – | – | – | 4.56 | 3.82 | 1.76 | 17.4 | 32.6 | 5.63 | – | –
7 | COc1cc(OC)cc(-c2ccc(-c3ccc(C(=N)N)cn3)o2)c1 | – | 3.25 | – | 2.99 | – | 3.14 | – | – | – | – | – | – | – | – | GI50 (DU-145 prostate): 1.76 µM; GI50 (MDA-MB-435): 1.55 µM; GI50 (PC-3 prostate): 1.65 µM
8 | C=CCN1/C(=C(\C#N)c2nc3ccccc3[nH]2)Sc2c1nc[nH]c2=O | – | – | – | – | – | – | – | > 100 | > 100 | > 100 | – | > 100 | > 100 | > 100 | –
9 | CSCC[C@@H]1C(=O)N(C)[C@H](C(C)(C)C)N1C(=O)c1ccccc1 | – | – | – | – | – | – | – | > 100 | > 100 | > 100 | > 100 | > 100 | > 100 | > 100 | –
10 | CC(=O)c1[nH]c(NC(C)C)c(C(=S)Nc2ccccc2)c1N | 86.4 | > 100 | 66.3 | 49 | 61.3 | – | 82.6 | – | – | – | – | – | – | – | –
11 | COc1cc2c3cc1Oc1c(O)c(OC)cc4c1C(Cc1ccc(O)c(c1)Oc1ccc(cc1)CC3N(C)CC2)N(C)CC4 (centres undefined) | – | – | – | – | – | – | – | – | 44.8 | 30.6 | 45 | 43.8 | 33.5 | 17.4 | –
12 | Cc1[nH]c(=O)[nH]c(=O)c1/C=C/C(=O)O (tested in a mixture with another compound) | – | – | – | – | – | – | – | > 625 | > 625 | > 625 | > 625 | > 625 | > 625 | > 625 | –
13 | COc1cc(C(=O)O[C@H](C(=O)NCCCNC(=O)[C@@H](OC(=O)c2cc(OC)cc3c(C)cccc23)[C@]2(C)CO2)[C@]2(C)CO2)c2cccc(C)c2c1 | 2.29 | < 0.01 | 0.579 | 0.503 | – | 0.477 | 0.839 | – | – | – | – | – | – | – | GI50 (BT-549 breast): 0.197 µM; GI50 (DU-145 prostate): < 0.01 µM; GI50 (MDA-MB-231 breast): 0.153 µM; GI50 (PC-3 prostate): < 0.0367 µM; GI50 (T-47D breast): 0.0595 µM
14 | N#CC(N=Nc1ccccc1C(=O)O)C(N)=O (centres undefined) | > 100 | > 100 | > 100 | > 100 | > 100 | > 100 | > 100 | – | – | – | – | – | – | – | –
15 | COc1nc2cccc(C(O)c3ccccc3)c2nc1-c1ccccc1 (centres undefined) | 46.3 | 26.9 | 31.9 | 4.79 | 5.17 | 65.5 | 61.6 | – | – | – | – | – | – | – | –
16 | O=C1C=CC2OC(c3ccccc3)C(O)C2O1 (centres undefined) | – | – | – | – | – | – | – | 13.9 | 14.7 | 18.2 | 1.81 | 30.8 | 10.1 | 23.8 | –
17 | COc1cccc(/C=N/NC(=O)CSCC(=O)N/N=C/c2cccc(OC)c2OC)c1OC | – | > 100 | > 100 | > 100 | – | > 100 | > 100 | – | – | – | – | – | – | – | –
18 | CCC(C)C(N)C(=O)NC(CC(N)=O)C(=O)NC(CC(C)C)C(=O)NC(CCCCN)C(=O)NC(C)C(=O)NC(CC(C)C)C(=O)NC(C)C(=O)NC(C)C(=O)NC(CC(C)C)C(=O)NC(C)C(=O)NC(CCCCN)C(=O)NC(CCCCN)C(=O)NC(C(=O)NC(CC(C)C)C(N)=O)C(C)CC (centres undefined) | – | – | – | – | – | – | – | 25 | 28.1 | 17 | 13.5 | 25.9 | – | > 58.6 | –
19 | CC1(C)[C@@H]2CC[C@]1(C)[C@H](OC(=O)/C=C/c1ccccc1)C2 | 48 | 47.9 | 35 | 77.7 | 92.6 | 56.4 | 34.2 | – | – | – | – | – | – | – | –
20 | O=c1c2ccccc2[nH]n1Cc1ccccc1 | > 100 | > 100 | > 100 | > 100 | > 100 | > 100 | > 100 | – | – | – | – | – | – | – | –
